Like-named read-outs stand apart in the source and are kept apart here.
Columns and labels:
SC-115 cells = assay: Growth inhibiting effect in testosterone-added system using SC-115 cells (tritium-labeled thymidine uptake); assay type: cell-based
Description: Uptake of tritium-labeled thymidine was examined in a serum free culture system using testosterone-dependent SC-115 cells. Strong inhibitory effects of the conjugate and the estradiol derivatives were shown.
The SC-115 cells were cultured on a 96-well microplate (5,000 cells/well) for 24 hours with a culture medium (200 μl/well; Ham's F-12/MEM-E (98% ), dextran-treated fetal calf serum (2%) and testosterone (1×10^-8 M)). The culture medium was replaced with fresh medium containing the test compound (Ham's F-12/MEM-E, bovine serum albumin (0.1%), testosterone (1×10^-8 M) and test compound of various concentrations). The culture medium was replaced every two days, and culture was continued for 7 days. Thymidine (1 μci/ml, tritium-labeled)was added, and 5 hours later, the culture medium was removed. The cells were washed with PBS and then washed twice with ice-cold trichloroacetic acid (10%). Then the cells were dissolved in 0.5N sodium hydroxide and neutralized with 0.5N hydrochloric acid. The radioactivity of the neutralized solution was measured by a liquid scintillation counter to determine the growth inhibiting effect (IC50).

uterus = assay: Estrogen action (uterine weight tests); assay type: in vivo; conditions: once hypodermically, 3-week-old Wistar female rats, 24 hours; higher = weaker estrogen action
Description: The estrogen action of the conjugate and the estradiol derivative were each examined according to the uterine weight tests. The estrogen action was found diminished.
The test compounds and estradiol dissolved in sesame oil (containing 3% benzyl alcohol) were each administered once hypodermically to 3-week-old Wistar female rats. 24 hours later, the uterus of each test rat was removed and its weight (ratio to the body weight) was measured. From the relation between the uterus weight/body weight ratio and the dosage, the compound dosage that gives a uterus weight/body weight ratio twice that in the control group was determined. The dosages of the test compounds are shown as a ratio to the dosage of estradiol. 3-Benzoyloxy-1,3,5(10)-estratriene-17β-[4-[p-[bis (2-chloroethyl)amino]phenyl]-butyryloxy]acetate was used as a comparative compound.

DU-145 cells = assay: Growth inhibiting effect in bFGF-added system using DU-145 cells (tritium-labeled thymidine uptake); assay type: cell-based
Description: Uptake of tritium-labeled thymidine was examined in a serum free culture system using bFGF-dependent DU-145 cells. Strong inhibitory effects of the conjugate and the estradiol derivative were shown.
The DU-145 cells were cultured on a 96-well microplate (5,000 cells/well) for 24 hours with a culture medium (200 μl/well; Ham's F-12/MEM-E (98%) and dextran-treated fetal calf serum (2%)). Then the culture medium was replaced with fresh medium containing the test compound (Ham's F-12/MEM-E, bovine serum albumin (0.1%), bovine pituitary-derived bFGF (1 ng/ml) and the test compound of various concentrations). Culture with this medium was continued for 4 days. Thymidine (1 μci/ml, tritium-labeled) was added, and 5 hours layer, the culture medium was removed. The cells were washed with PBS and then washed twice with ice-cold trichloroacetic acid (10%). Then the cells were dissolved in 0.5N sodium hydroxide and neutralized with 0.5N hydrochloric acid. The radioactivity of the neutralized solution was measured by a liquid scintillation counter to determine the growth inhibiting effect (IC50).

[1] = SC-115 cells, testosterone 1×10^-8 M, 7 days, read-out: IC50
[2] = 168 h, SC-115 cells, testosterone 1×10^-8 M, 7 days, read-out: IC50
[3] = DU-145 cells, bFGF 1 ng/ml, 4 days, read-out: IC50

Row | Compound | IC50 (SC-115 cells; [1]) [nM] | Dosage that gives a uterus wt/body wt ratio twice that in control group (ratio to estradiol dosage) (uterus) | IC50 (SC-115 cells; [2]) [nM] | IC50 (DU-145 cells; [3]) [µM] | IC50 (DU-145 cells; Homo sapiens, 96 h, DU-145 cells, bFGF 1 ng/ml, 4 days, read-out: IC50) [µM] | IC50 (SC-115 cells; 168 h) [nM] | IC50 (DU-145 cells; Homo sapiens, DU-145, 96 h, read-out: IC50 (ND*: no inhibiting action observed)) [µM]
1 | C[C@]12CC[C@@H]3c4ccc(OC(=O)c5ccccc5)cc4CC[C@H]3[C@@H]1CC[C@@H]2OCCOC(=O)CCCc1ccc(N(CCCl)CCCl)cc1 [Compound I-6, 1-[3-benzoyloxy-1,3,5(10)-estratriene-17β-oxy]-2-[4-[p-[bis (2-chloroethyl)amino]phenyl]-butyryloxy]ethane] | 1500 | > 7000 ratio to estradiol dosage |  |  |  |  | 
2 | Cc1cc(OCc2ccccc2)cc2c1[C@H]1CC[C@]3(C)[C@@H](OCCO)CC[C@H]3[C@@H]1CC2 [II-2, 2-[3-benzyloxy-1,3,5(10) -estratriene-1-methyl-17β-oxy]ethanol] |  | > 7000 ratio to estradiol dosage | 700 |  |  |  | 
3 | C[C@]12CC[C@@H]3c4ccc(OCc5ccccc5)cc4CC[C@H]3[C@@H]1CC[C@@H]2OCCOCCCCc1ccc(N(CCCl)CCCl)cc1 [Compound I-1, 1-[3-benzyloxy-1,3,5(10) -estratriene-17β-oxy]-2-[4-[p-[bis (2-chloroethyl)amino]phenyl]butoxy]ethane] | 1200 | > 7000 ratio to estradiol dosage |  | 4.6 |  |  | 
4 | C[C@]12CC[C@@H]3c4ccc(OCc5ccccc5)cc4CC[C@H]3[C@@H]1CC[C@@H]2OCCOC(=O)CCCc1ccc(N(CCCl)CCCl)cc1 [Compound I-5, 1-[3-benzyloxy-1,3,5(10)-estratriene-17β-oxy]-2-[4-[p-[bis(2-chloroethyl)amino]phenyl]-butyryloxy]ethane] | 500 | > 7000 ratio to estradiol dosage |  |  |  |  | 
5 | C[C@]12CC[C@@H]3c4ccc(OC(=O)c5ccccc5)cc4CC[C@H]3[C@@H]1CC[C@@H]2OCCOCCCCc1ccc(N(CCO)CCO)cc1 [Compound I-4] | 800 | 1400 ratio to estradiol dosage |  |  |  |  | 
6 | 1-[3-benzoyloxy-1,3,5(10)-estratriene-1-methyl-17β-oxy]-2-[4-[p-[bis(2-hydroxyethyl)amino]phenyl]-butoxy]ethane [Compound I-3] | 200 | > 7000 ratio to estradiol dosage |  | 9.2 |  |  | 
7 | Cc1cc(OC(=O)c2ccccc2)cc2c1[C@H]1CC[C@]3(C)[C@@H](OCCO)CC[C@H]3[C@@H]1CC2 [II-3, 2-[3-benzoyloxy-1,3,5(10) -estratriene-1-methyl-17β-oxy]ethanol] |  | > 7000 ratio to estradiol dosage | 1500 |  |  |  | 
8 | C[C@]12CC[C@@H]3c4ccc(OCc5ccccc5)cc4CC[C@H]3[C@@H]1CC[C@@H]2OCCO [II-1, 2-[3-benzyloxy-1,3,5 (10) -estratriene-17β-oxy]ethanol] |  | 200 ratio to estradiol dosage | 200 |  | 2.9 |  | 
9 | C[C@]12CC[C@@H]3c4ccc(OC(=O)c5ccccc5)cc4CC[C@H]3[C@@H]1CC[C@@H]2OCCOCCCCc1ccc(N(CCCl)CCCl)cc1 [Compound I-2, 1-[3-benzoyloxy-1,3,5(10)-estratriene-17β-oxy]-2-[4-[p-[bis (2-chloroethyl)amino]phenyl]butoxy]ethane] | 1300 | > 7000 ratio to estradiol dosage |  | 7.8 |  |  | 
10 | C[C@]12CC[C@@H]3c4ccc(OC(=O)c5ccccc5)cc4CC[C@H]3[C@@H]1CC[C@@H]2OC(=O)COC(=O)CCCc1ccc(N(CCCl)CCCl)cc1 [Comparative compound, 3-Benzoyloxy-1,3,5(10)-estratriene-17β-[4-[p-[bis (2-chloroethyl)amino]phenyl]-butyryloxy]acetate, reference compound] |  | 200 ratio to estradiol dosage |  |  |  | 2600 | > 10
